According to the supplement of paper PMC11451515:

Experiments:
Conditions in all cases: 48 h
P12-Ichikawa [1] = assay: cell viability relative to DMSO control; higher = less cytotoxic
Method in brief: (§1)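 Cells were incubated for 48 h at 37°C before CellTiter-Glo One luminescence was read. The cells were NOMO1 or SEM (500 cells/well) or P12-Ichikawa (1000 cells/well) leukemia cells, adapted for at least four passages in each medium and seeded in 1536-well plates (5 μl). Dosing used library compounds in DMSO applied by pin over 11 threefold points, 47 μM to 0.79 nM. Viability is the per-plate percentage of DMSO wells, with cell-free wells as background.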

SEM cells [2] = assay: as above
Method in brief: as §1

NOMO1 [3] = assay: as above
Method in brief: as §1

P12-Ichikawa [4] = assay: AUC of viability dose-response curve (% viability x log10 dose units); higher = less sensitive
Method in brief: (§2)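 Seeding of medium-adapted leukemia cells was at 500 or 1000 cells/well in 1536-well plates, followed by 48 h at 37°C with library compounds in DMSO at 11 threefold doses from 47 μM to 0.79 nM. CellTiter-Glo One luminescence was normalised per plate to DMSO and cell-free wells and fitted as a four-parameter log-logistic function of log10 dose. Area under the curve was integrated by trapezoidal rule, with curves exceeding full viability scaled and curves failing quality control removed.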

NOMO1 [5] = assay: as above
Method in brief: as §2

SEM cells [6] = assay: as above
Method in brief: as §2

Cc1c(NC(=O)OC[C@@H]2COCCN2)cn2ncnc(Nc3ccc4c(cnn4Cc4cccc(F)c4)c3)c12
cell viability [%]
Conditions | NOMO1 [3] | P12-Ichikawa [1] | SEM cells [2]
HPLM + 10% dialyzed FBS, 0.000781 µM | 67.5 | 80 | 74.5
HPLM + 10% dialyzed FBS, 0.00234 µM | 75.4 | 83.9 | 72
HPLM + 10% dialyzed FBS, 0.00702 µM | 80.3 | 91.5 | 85.6
HPLM + 10% dialyzed FBS, 0.0211 µM | 90.6 | 90 | 85.8
HPLM + 10% dialyzed FBS, 0.0632 µM | 93.2 | 94.8 | 91.5
HPLM + 10% dialyzed FBS, 0.19 µM | 102 | 96.5 | 106
HPLM + 10% dialyzed FBS, 0.569 µM | 92.8 | 99.8 | 94.5
HPLM + 10% dialyzed FBS, 1.71 µM | 76 | 94.3 | 96.8
HPLM + 10% dialyzed FBS, 5.12 µM | 88.7 | 86.8 | 103
HPLM + 10% dialyzed FBS, 15.4 µM | 60.5 | 87.8 | 21.7
HPLM + 10% dialyzed FBS, 46.1 µM | 18.6 | 50.6 | 25
RPMI 5 mM glucose + 10% FBS, 0.000781 µM | 97.2 | 83 | 95.5
RPMI 5 mM glucose + 10% FBS, 0.00234 µM | 86.6 | 84.4 | 95.2
RPMI 5 mM glucose + 10% FBS, 0.00702 µM | 85.2 | 90.8 | 103
RPMI 5 mM glucose + 10% FBS, 0.0211 µM | 93.5 | 87.9 | 103
RPMI 5 mM glucose + 10% FBS, 0.0632 µM | 91.6 | 92.9 | 116
RPMI 5 mM glucose + 10% FBS, 0.19 µM | 89.5 | 85.8 | 102
RPMI 5 mM glucose + 10% FBS, 0.569 µM | 89.9 | 86 | 109
RPMI 5 mM glucose + 10% FBS, 1.71 µM | 92.7 | 92.2 | 104
RPMI 5 mM glucose + 10% FBS, 5.12 µM | 84.6 | 76.6 | 98.6
RPMI 5 mM glucose + 10% FBS, 15.4 µM | 74.9 | 81.3 | 15.4
RPMI 5 mM glucose + 10% FBS, 46.1 µM | 40 | 48.3 | 10.8
RPMI 5 mM glucose + 10% dialyzed FBS, 0.000781 µM | 77.6 | 83.4 | 71.7
RPMI 5 mM glucose + 10% dialyzed FBS, 0.00234 µM | 80.4 | 84.4 | 62.1
RPMI 5 mM glucose + 10% dialyzed FBS, 0.00702 µM | 86.3 | 88.9 | 78.1
RPMI 5 mM glucose + 10% dialyzed FBS, 0.0211 µM | 85.8 | 97.3 | 90.3
RPMI 5 mM glucose + 10% dialyzed FBS, 0.0632 µM | 88.3 | 100 | 74.8
RPMI 5 mM glucose + 10% dialyzed FBS, 0.19 µM | 86.5 | 88.1 | 84
RPMI 5 mM glucose + 10% dialyzed FBS, 0.569 µM | 89 | 89.2 | 88.5
RPMI 5 mM glucose + 10% dialyzed FBS, 1.71 µM | 91.7 | 92.9 | 99.6
RPMI 5 mM glucose + 10% dialyzed FBS, 5.12 µM | 89.4 | 91.3 | 85.6
RPMI 5 mM glucose + 10% dialyzed FBS, 15.4 µM | 80.3 | 82.8 | 16.8
RPMI 5 mM glucose + 10% dialyzed FBS, 46.1 µM | 37.5 | 40.4 | 9.72

AUC of viability dose-response curve
Conditions | HPLM + 10% dialyzed FBS | RPMI 5 mM glucose + 10% FBS | RPMI 5 mM glucose + 10% dialyzed FBS
NOMO1 [5] | 379 | 410 | 397
P12-Ichikawa [4] | 422 | 401 | 417

CNC(=O)c1ccc(N2C(=S)N(c3ccc(C#N)c(C(F)(F)F)c3)C(=O)C23CCC3)cc1F
cell viability [%]
Conditions | NOMO1 [3] | P12-Ichikawa [1] | SEM cells [2]
HPLM + 10% dialyzed FBS, 0.000781 µM | 90.5 | 86.5 | 87.3
HPLM + 10% dialyzed FBS, 0.00234 µM | 90.2 | 92.3 | 98.8
HPLM + 10% dialyzed FBS, 0.00702 µM | 91.7 | 101 | 95.9
HPLM + 10% dialyzed FBS, 0.0211 µM | 33.3 | 9.68 | 19.5
HPLM + 10% dialyzed FBS, 0.0632 µM | 95.1 | 108 | 92.3
HPLM + 10% dialyzed FBS, 0.19 µM | 105 | 101 | 97
HPLM + 10% dialyzed FBS, 0.569 µM | 103 | 97 | 97.8
HPLM + 10% dialyzed FBS, 1.71 µM | 107 | 103 | 95.2
HPLM + 10% dialyzed FBS, 5.12 µM | 92.6 | 103 | 101
HPLM + 10% dialyzed FBS, 15.4 µM | 93.2 | 107 | 96.9
HPLM + 10% dialyzed FBS, 46.1 µM | 111 | 102 | 97.3
RPMI 5 mM glucose + 10% FBS, 0.000781 µM | 80.5 | 88 | 84.7
RPMI 5 mM glucose + 10% FBS, 0.00234 µM | 88.3 | 86.8 | 83.4
RPMI 5 mM glucose + 10% FBS, 0.00702 µM | 83.6 | 101 | 104
RPMI 5 mM glucose + 10% FBS, 0.0211 µM | 18.9 | 13.1 | 14.2
RPMI 5 mM glucose + 10% FBS, 0.0632 µM | 98.9 | 94.9 | 83
RPMI 5 mM glucose + 10% FBS, 0.19 µM | 88 | 98 | 98.3
RPMI 5 mM glucose + 10% FBS, 0.569 µM | 92 | 102 | 99.3
RPMI 5 mM glucose + 10% FBS, 1.71 µM | 86.6 | 99.6 | 91.7
RPMI 5 mM glucose + 10% FBS, 5.12 µM | 96 | 99.3 | 86.7
RPMI 5 mM glucose + 10% FBS, 15.4 µM | 88.4 | 103 | 98.3
RPMI 5 mM glucose + 10% FBS, 46.1 µM | 99.1 | 106 | 96.3
RPMI 5 mM glucose + 10% dialyzed FBS, 0.000781 µM | 84.9 | 75.4 | 84.3
RPMI 5 mM glucose + 10% dialyzed FBS, 0.00234 µM | 93.1 | 87.7 | 83
RPMI 5 mM glucose + 10% dialyzed FBS, 0.00702 µM | 108 | 88.6 | 104
RPMI 5 mM glucose + 10% dialyzed FBS, 0.0211 µM | 34.6 | 24.7 | 15.8
RPMI 5 mM glucose + 10% dialyzed FBS, 0.0632 µM | 100 | 97.7 | 102
RPMI 5 mM glucose + 10% dialyzed FBS, 0.19 µM | 90.6 | 96.6 | 101
RPMI 5 mM glucose + 10% dialyzed FBS, 0.569 µM | 95.2 | 92.7 | 96.3
RPMI 5 mM glucose + 10% dialyzed FBS, 1.71 µM | 93.1 | 91 | 96.9
RPMI 5 mM glucose + 10% dialyzed FBS, 5.12 µM | 95.6 | 97.8 | 98
RPMI 5 mM glucose + 10% dialyzed FBS, 15.4 µM | 91.7 | 96.7 | 96.3
RPMI 5 mM glucose + 10% dialyzed FBS, 46.1 µM | 103 | 98.5 | 111

SEM cells [6]
Conditions | AUC of viability dose-response curve
HPLM + 10% dialyzed FBS | 425
RPMI 5 mM glucose + 10% FBS | 408
RPMI 5 mM glucose + 10% dialyzed FBS | 411

C[C@]12CCC(=O)C=C1CC[C@@H]1[C@@H]2CC[C@@]2(C)[C@H]1CC[C@]2(C)O
cell viability [%]
Conditions | NOMO1 [3] | P12-Ichikawa [1] | SEM cells [2]
HPLM + 10% dialyzed FBS, 0.000781 µM | 109 | 105 | 93.6
HPLM + 10% dialyzed FBS, 0.00234 µM | 116 | 110 | 72.8
HPLM + 10% dialyzed FBS, 0.00702 µM | 115 | 105 | 86.5
HPLM + 10% dialyzed FBS, 0.0211 µM | 85.3 | 91.5 | 29.9
HPLM + 10% dialyzed FBS, 0.0632 µM | 110 | 104 | 86.7
HPLM + 10% dialyzed FBS, 0.19 µM | 102 | 107 | 91.1
HPLM + 10% dialyzed FBS, 0.569 µM | 108 | 109 | 68.3
HPLM + 10% dialyzed FBS, 1.71 µM | 102 | 104 | 84.9
HPLM + 10% dialyzed FBS, 5.12 µM | 99.1 | 102 | 90.9
HPLM + 10% dialyzed FBS, 15.4 µM | 96.5 | 89.6 | 65.6
HPLM + 10% dialyzed FBS, 46.1 µM | 90.2 | 86.4 | 78.7
RPMI 5 mM glucose + 10% FBS, 0.000781 µM | 85.1 | 94.7 | 101
RPMI 5 mM glucose + 10% FBS, 0.00234 µM | 89.6 | 93.3 | 105
RPMI 5 mM glucose + 10% FBS, 0.00702 µM | 88.9 | 105 | 97.3
RPMI 5 mM glucose + 10% FBS, 0.0211 µM | 97.2 | 79.6 | 29.8
RPMI 5 mM glucose + 10% FBS, 0.0632 µM | 86 | 104 | 98.1
RPMI 5 mM glucose + 10% FBS, 0.19 µM | 96.5 | 102 | 95.5
RPMI 5 mM glucose + 10% FBS, 0.569 µM | 91.1 | 104 | 96.1
RPMI 5 mM glucose + 10% FBS, 1.71 µM | 86.8 | 94.9 | 74.3
RPMI 5 mM glucose + 10% FBS, 5.12 µM | 98.7 | 97.9 | 102
RPMI 5 mM glucose + 10% FBS, 15.4 µM | 87.7 | 92.1 | 95.8
RPMI 5 mM glucose + 10% FBS, 46.1 µM | 83.4 | 79.8 | 85.4
RPMI 5 mM glucose + 10% dialyzed FBS, 0.000781 µM | 107 | 94.6 | 95.5
RPMI 5 mM glucose + 10% dialyzed FBS, 0.00234 µM | 93.8 | 101 | 82.2
RPMI 5 mM glucose + 10% dialyzed FBS, 0.00702 µM | 96.1 | 100 | 86.9
RPMI 5 mM glucose + 10% dialyzed FBS, 0.0211 µM | 86.5 | 80.5 | 41.9
RPMI 5 mM glucose + 10% dialyzed FBS, 0.0632 µM | 105 | 94.8 | 95.2
RPMI 5 mM glucose + 10% dialyzed FBS, 0.19 µM | 93.1 | 100 | 98.6
RPMI 5 mM glucose + 10% dialyzed FBS, 0.569 µM | 91.6 | 91.7 | 107
RPMI 5 mM glucose + 10% dialyzed FBS, 1.71 µM | 98.1 | 106 | 99.7
RPMI 5 mM glucose + 10% dialyzed FBS, 5.12 µM | 90.9 | 97.5 | 100
RPMI 5 mM glucose + 10% dialyzed FBS, 15.4 µM | 91.6 | 87.7 | 98.9
RPMI 5 mM glucose + 10% dialyzed FBS, 46.1 µM | 90.7 | 88.1 | 97.4

AUC of viability dose-response curve
Conditions | HPLM + 10% dialyzed FBS | RPMI 5 mM glucose + 10% FBS | RPMI 5 mM glucose + 10% dialyzed FBS
NOMO1 [5] | 440 | 430 | 453
P12-Ichikawa [4] | 465 | 458 | 452
